# Measurements as given in patent publication US4547508A, “1-Phenylisoquinoline derivatives, pharmaceutical products containing these compounds and their use” (Hoechst Aktiengesellschaft, priority 1982, dated 1985).
# How the values were obtained:
# [1] = Acute toxicity in the mouse after intraperitoneal administration (ALD50); set-up: species or system male mice (Gassner, NMRI); conditions: in vivo, ip, deaths within 24 hours after administration
# Description: A. Acute toxicity in the mouse after intraperitoneal administration (ALD50)
# The experimental animals used were male mice (Gassner, NMRI) of body weight 20-30 g. 6 animals were tested in each group. The compounds were suspended in 1% strength methylhydroxyethylcellulose (MH) and administered intraperitoneally (i.p.) to the animals in a volume of 10 ml/kg of body weight. The compounds according to the invention were administered in doses of 3, 10, 30 and 100 mg/kg i.p.
# The acute lethal dose (ALD50) was determined graphically from the number of animals which died within 24 hours after administration of the compound.
# [2] = system: tetrabenazine-induced ptosis; assay: Prevention of the ptosis induced by tetrabenazine in mice after intraperitoneal administration; format: in vivo, male mice (Gassner, NMRI); conditions: ip; mouse, i.p., 30 minutes before TBZ 40 mg/kg i.p.; dose which reduces the mean ptosis index (maximum 4) by 50%
# Description: B. Prevention of the ptosis induced by tetrabenazine in mice after intraperitoneal administration
# The experimental animals used were male mice (Gassner, NMRI) of body weight 20-26 g. 5 animals were tested in each group. The compounds were suspended in 1% strength methylhydroxyethylcellulose and administered intraperitoneally (i.p.) to the animals in a volume of 10 ml/kg of body weight. The compounds according to the invention were tested in doses of 5, 10 and 20 mg/kg i.p. The control group merely received 10 ml/kg of MH not containing active ingredient i.p.
# The componds were administered to the animals 30 minutes before the i.p. administration of tetrabenazine (TBZ). The control group merely received 1% strength MH and TBZ in accordance with the same schedule as that for the animals treated with the test substances.
# 30 minutes after the TBZ injection (TBZ: 40 mg/kg i.p.), the animals were placed in individual plastic boxes and the ptosis was assessed 1 minute later in accordance with the scheme below:
# Eyes closed = 4 (100% ptosis)
# Eyes 3/4 closed = 3 (75% ptosis)
# Eyes 1/2 closed = 2 (50% ptosis)
# Eyes 1/4 closed = 1 (25% ptosis)
# Eyes open = 0 (0% ptosis)
# The dose defined as the ED50 is that which reduces the mean ptosis index (maximum 4) by 50%.
# [3] = system: norepinephrine uptake (synaptosomes from rat brain); assay: Inhibition of reuptake of norepinephrine in synaptosomes; format: biochemical; conditions: 14C-norepinephrine, pH 7.4, 37° C., 4 minutes
# Description: C. Inhibition of reuptake of norepinephrine in synaptosomes
# Synaptosomes from rat brain were isolated by the method of Whittaker (Handbook of Neurochemistry 2, 327-364, Editor A. Lajtha; London and New York, 1969) and the uptake of monoamine was measured by the method of Schacht and Heptner (Biochemical Pharmac. 23, 3413-3422). The ^14 C-norepinephrine uptake was measured in a Krebs-Henseleit bicarbonate buffer pH 7.4 which contained 11 millimoles of glucose. 2.5 ml of the suspension of synaptosomes were incubated with labeled norepinephrine at 37° C. in the presence or absence of the test substance. The incubation time was 4 minutes. Further uptake was then stopped by cooling in ice. In order to exclude non-specific adsorption, control samples were incubated at 0° C. under otherwise identical conditions.
# The amounts of norepinephrine taken up were measured using the membrane filtration technique using a Millipore sampling manifold with cellulose nitrate filters of 25 mm diameter and 0.6 micrometer pore size. The synaptosomes were collected under reduced pressure and the radioactivity was determined in a Packard Tricarb scintillation counter. The amount of collected norepinephrine has been reported as a percentage of the radioactivity which was added to the incubation mixture.
# The IC50 values (inhibition concentration) in the Table 1 below indicate the concentration of the test substances which show 50% inhibition of the uptake of ^14 C-norepinephrine.
Structure (SMILES),LD50 at 24 h [1] [mg/kg],ED50 [2] [mg/kg],IC50 [3] [nM]
"CCN1CC=C(c2cc3ccccc3c(-c3ccccc3C)n2)CC1 [Example 2, 3-(1-Ethyl-1,2,5,6-tetrahydro-4-pyridyl)-1-(2-methylphenyl)isoquinoline]",100,1.4,–
"Cc1ccccc1-c1nc(C2=CCNCC2)cc2ccccc12 [Example 3, 1-(2-Methylphenyl)-3-(1,2,5,6-tetrahydro-4-pyridyl)isoquinoline]",210,0.13,5.6
CN1CC=C(c2cc3ccccc3c(-c3ccccc3Cl)n2)CC1 [Example 6],100,0.79,33
CN1CC=C(c2cc3ccccc3c(-c3ccccc3F)n2)CC1 [Example 8],85,0.54,10
C=CCN1CC=C(c2cc3ccccc3c(-c3ccccc3C)n2)CC1 [Example 11],300,0.49,–
C1=C(c2cc3ccccc3c(-c3ccccc3)n2)CCNC1 [Example 13],300,0.5,6.2
CN1CCC=C(c2cc3ccccc3c(-c3ccccc3)n2)C1 [Example 19],40,3.3,50
C1=C(c2cc3ccccc3c(-c3ccccc3)n2)CNCC1 [Example 20],75,0.33,13
"c1ccc(-c2nc(C3CCNCC3)cc3ccccc23)cc1 [Example 21, 1-Phenyl-3-(4-piperidinyl)isoquinoline]",75,0.8,17
"C=CCN1CCC(c2cc3ccccc3c(-c3ccccc3C)n2)CC1 [Example 23, 3-(1-Allyl-4-piperidinyl)-1-(2-methylphenyl)isoquinoline]",55,3,–
CN1CCC(c2cc3ccccc3c(-c3ccccc3)n2)CC1 [Example 25],28,6.59,–
Cc1ccccc1-c1nc(C2CCN(C)CC2)cc2ccccc12 [Example 27],27,0.53,–
